In brackets after ≈: the same amount, converted by molar mass. Read-outs that look alike come from different tables or passages of the source.
Key:
Rhinovirus HGP = assay: Antiviral activity: inhibition of viral cytopathogenic effect (C.P.E.) in HeLa cell culture; format: cell-based; details: for IC50: Enterovirus, HeLa, 48 h; for antivirale Aktivität: qualitative statement in the description, no virus named
Protocol: (§1) Eine Suspension von HeLa-Zellen (6 x 10^4) wurde mit Rhinovirus HGP (3 x 10^3 Plaque-bildende Einheiten, PFU) gemischt und auf eine Mikrotestplatte gebracht, die die zu testenden Verbindungen in zunehmender Verdünnung enthielten. Die Zellen wurden dann in Eagle's Minimalnährlösung, die 2% Kalbsserum, 1% Tryptosephosphatbrühe, 100 ug/ml Streptomycin und 20 Einheiten/ml Penicillin G enthielt, kultiviert. Der virale zytopathogenische Effekt (C.P.E.) und die Cytotoxizität wurden mikroskopisch nach 2 Tagen Kultivierung bei 33°C beobachtet. Die antivirale Aktivität (IC50) der Testverbindungen ist diejenige Konzentration,.bei der C.P.E. um 50% gegenüber der Kontrollkultur gehemmt war. Die Cytotoxizität ist als Minimalkonzentration angegeben, bei der toxische Symptome beobachtet wurden.(cytotoxische Dosis).

[1] = Cytotoxicity in HeLa cells, observed microscopically in the antiviral test; format: cell-based; details: human, hela cells
Protocol: as §1

[2] = concentration inhibiting C.P.E. by 50% versus control culture, HeLa cells, 2 days at 33°C, read-out: IC50
[3] = minimal concentration at which toxic symptoms were observed (cytotoxische Dosis), 2 days at 33°C, read-out: Cytotoxizität

Compound | IC50 (Rhinovirus HGP; [2]) | MCC at 48 h [1, 3] | antivirale Aktivität (Rhinovirus HGP) | MCC at 48 h [1] | IC50 (Rhinovirus HGP)
CCOC(=O)Oc1cc(OC)cc(OC)c1C(=O)NCc1ccc(OC)cc1 | 0.1 µg/mL (≈ 0.257 µM) | > 8 µg/mL | – | – | –
CCOc1cc(OC)cc(O)c1C(=O)CCc1ccc(OC)cc1 [1-(2-Ethoxy-6-hydroxy-4--methoxyphenyl)-3-(4-methoxy-phenyl)-1-propanon] | 0.01 to 0.03 µg/mL (≈ 0.0303 to 0.0908 µM) | 0.9 µg/mL | – | – | –
COc1cc(O)c(C(=O)CCc2ccc(C)cc2)c(OC)c1 [1-(2-Hydroxy-4,6-dimethoxy-phenyl)-3-(4-methylphenyl)-1--propanon] | 0.01 to 0.03 µg/mL (≈ 0.0333 to 0.0999 µM) | > 8 µg/mL | – | – | –
COc1cc(O)c(C(=O)CCc2ccc3c(c2)OCO3)c(OC)c1 [1-(2-Hydroxy-4,6-dimethoxy-phenyl)-3-[3,4-(methylendioxy)-phenyl]-1-propanon] | 0.03 to 0.1 µg/mL (≈ 0.0908 to 0.303 µM) | > 8 µg/mL | – | – | –
COc1cc(O)c(C(=O)CCc2ccc(SC)cc2)c(OC)c1 [1-(2-Hydroxy-4,6-dimethoxy-phenyl)-3-[4-(methylthio)-phenyl]-1-propanon] | 0.01 to 0.03 µg/mL (≈ 0.0301 to 0.0902 µM) | 8 µg/mL | – | – | –
COc1ccc(C(=O)CC(=O)c2c(O)cc(OC)cc2OC)cc1 [1-(2-Hydroxy-4,6-dimethoxyphenyl)-3-(4-methoxyphenyl)-1,3-propandion] | 0.01 to 0.03 µg/mL (≈ 0.0303 to 0.0908 µM) | 8 µg/mL | – | – | –
COc1cc(O)c(C(=O)CCc2ccc(C)o2)c(OC)c1 [1-(2-Hydroxy-4,6-dimethoxyphenyl)-3-(5-methyl-2-furyl)-l-propanon] | 0.9 µg/mL (≈ 3.1 µM) | > 8 µg/mL | – | – | –
COc1cc(O)c(C(=O)CCC2CCC(C)O2)c(OC)c1 (stereo not drawn) [1-(2-Hydroxy-4,6-dimethoxyphenyl)-3-(tetrahydro-5-methyl-2-furyl)-1-propanon] | 0.9 µg/mL (≈ 3.06 µM) | > 8 µg/mL | – | – | –
COc1ccc(CCC(=O)c2c(O)cc(OC(C)C)cc2OC)cc1 [1-(2-Hydroxy-4-isopropoxy-6-methoxyphenyl)-3-(4-methoxyphenyl)-1-propanon] | 0.03 to 0.1 µg/mL (≈ 0.0871 to 0.29 µM) | 8 µg/mL | – | – | –
CCCOc1cc(O)c(C(=O)CCc2ccc(OC)cc2)c(OC)c1 [1-(2-Hydroxy-6-methoxy-4-propoxyphenyl)-3-(4-methoxyphenyl)-1-propanon] | 0.004 to 0.01 µg/mL (≈ 0.0116 to 0.029 µM) | 2.7 µg/mL | – | – | –
COc1ccc(CCC(=NO)c2c(O)cc(OC)cc2OC)cc1 [1-(2-Hydroxy--4,6-dimethoxyphenyl)-3-(4-methoxyphenyl)-1-propanon-oxim] | – | > 10 µg/mL | – | – | –
CCOc1cc(O)c(C(=S)CCc2ccc(OC)cc2)c(OC)c1 [1-(4-Ethoxy-2-hydroxy-6-methoxyphenyl)-3-(4-methoxyphenyl)-1-propanthion] | 0.002 µg/mL (≈ 0.00577 µM) | – | besonders starke antivirale Aktivität | 2.7 µg/mL | –
COc1ccc(CCC(=O)c2c(O)cc(SC)cc2OC)cc1 [1-[2-Hydroxy-6-methoxy-4-(methylthio)-phenyl]-3-(4-methoxyphenyl)-1-propanon] | 0.1 µg/mL (≈ 0.301 µM) | 1 µg/mL | – | – | –
CCOc1cc(OC)c(C(=O)NCc2ccc(OC)cc2)c(OP(=O)(O)O)c1 [2--[(p-Anisylamino)carbonyl]-5-ethoxy-3-methoxyphenyl-dihydrogenphosphat] | – | > 8 µg/mL | besonders starke antivirale Aktivität | – | 0.01 to 0.03 µg/mL (≈ 0.0243 to 0.0729 µM)
COc1cc(O)c(C(=O)NCc2cccs2)c(OC)c1 [2-Hydroxy-4,6-dimethoxy-N-(2--thenyl)benzamid] | 0.03 µg/mL (≈ 0.102 µM) | 8 µg/mL | – | – | –
COc1cc(O)c(C(=O)NCc2ccc[nH]2)c(OC)c1 [2-Hydroxy-4,6-dimethoxy-N-(2-pyrrolylmethyl)benzamid] | 2.7 µg/mL (≈ 9.77 µM) | > 8 µg/mL | – | – | –
COc1ccc(NC(=O)c2c(O)cc(OC)cc2OC)cc1 [2-Hydroxy-4,6-dimethoxy-N-(4--methoxyphenyl)benzamid] | 0.03 to 0.1 µg/mL (≈ 0.0989 to 0.33 µM) | > 10 µg/mL | – | – | –
COc1cc(O)c(C(=O)NCc2ccc3c(c2)OCO3)c(OC)c1 [2-Hydroxy-4,6-dimethoxy-N-(m,p--methylenedioxybenzyl)benzamid] | 0.003 to 0.01 µg/mL (≈ 0.00905 to 0.0302 µM) | > 8 µg/mL | – | – | –
COc1cccc(CNC(=O)c2c(O)cc(OC)cc2OC)c1 [2-Hydroxy-4,6-dimethoxy-N-(m--methoxybenzyl)benzamid] | 0.002 µg/mL (≈ 0.0063 µM) | > 8 µg/mL | – | – | –
COc1cc(O)c(C(=O)NCc2ccc(C)cc2)c(OC)c1 [2-Hydroxy-4,6-dimethoxy-N-(p--methylbenzyl)benzamid] | 0.01 to 0.03 µg/mL (≈ 0.0332 to 0.0996 µM) | 8 µg/mL | – | – | –
COc1ccc(CNC(=O)c2c(O)cc(OC)cc2OC)cc1 [2-Hydroxy-4,6-dimethoxy-N-(p-methoxybenzyl)benzamid] | 0.002 µg/mL (≈ 0.0063 µM) | 8 µg/mL | – | – | –

Compound | IC50 (Rhinovirus HGP; [2]) | MCC at 48 h [1, 3] | antivirale Aktivität (Rhinovirus HGP) | MCC at 48 h [1] | IC50 (Rhinovirus HGP)
COc1cc(O)c(C(=O)NCc2ccc(OC)c(OC)c2)c(OC)c1 [2-Hydroxy-4,6-dimethoxy-N--(m,p-dimethoxybenzyl)benzamid] | 0.3 µg/mL (≈ 0.864 µM) | 8 µg/mL | – | – | –
COc1cc(O)c(C(=O)NCC2CCCS2)c(OC)c1 (stereo not drawn) [2-Hydroxy-4,6-dimethoxy-N--(tetrahydro-2-thenyl)benzamid] | 0.004 to 0.01 µg/mL (≈ 0.0135 to 0.0336 µM) | 8 µg/mL | – | – | –
CNC(=O)c1c(O)cc(OC)cc1OC [2-Hydroxy-4,6-dimethoxy-N--methylbenzamid] | 0.9 µg/mL (≈ 4.26 µM) | > 8 µg/mL | – | – | –
COc1cc(O)c(C(=O)NCc2ccncc2)c(OC)c1 [2-Hydroxy-4,6-dimethoxy-N-[(4-pyridyl)methyl]benzamid] | 0.9 µg/mL (≈ 3.12 µM) | 8 µg/mL | – | – | –
COc1cc(O)c(C(=O)NCc2ccc(SC)cc2)c(OC)c1 [2-Hydroxy-4,6-dimethoxy-N-[p--(methylthio)benzyl]benzamid] | 0.002 µg/mL (≈ 0.006 µM) | > 8 µg/mL | besonders starke antivirale Aktivität | – | –
COc1ccc(CNC(=O)c2c(O)cc(OCC=C(C)C)cc2OC)cc1 [2-Hydroxy-6-methoxy-4-(3-methyl-2-butenyloxy)-N-(p-methoxybenzyl)benzamid] | 0.001 to 0.002 µg/mL (≈ 0.00269 to 0.00538 µM) | > 8 µg/mL | besonders starke antivirale Aktivität | – | –
CCCOc1cc(O)c(C(=O)NCc2ccc(OC)cc2)c(OC)c1 [2-Hydroxy-6-methoxy-4-propoxy-N-(p-methoxybenzyl)benzamid] | 0.001 to 0.003 µg/mL (≈ 0.0029 to 0.00869 µM) | > 20 µg/mL | besonders starke antivirale Aktivität | – | –
COc1cc(O)c(C(=O)NCc2ccc(OC)c(O)c2)c(OC)c1 [2-Hydroxy-N-(m-hydroxy-p-methoxy-benzyl)-4,6-dimethoxybenzamid] | 0.1 to 0.3 µg/mL (≈ 0.3 to 0.9 µM) | 2.7 µg/mL | – | – | –
COc1cc(O)c(C(=O)NCc2ccc(O)cc2)c(OC)c1 [2-Hydroxy-N-(p-hydroxybenzyl)--4,6-dimethoxybenzamid] | 0.3 µg/mL (≈ 0.989 µM) | > 8 µg/mL | – | – | –
COc1ccc(CNC(=O)c2c(OC)cc(OC)cc2O[C@@H]2O[C@H](CO)[C@@H](O)[C@H](O)[C@H]2O)cc1 [2-[(p-Anisyl-amino)carbonyl]-3,5-dimethoxyphenyl-ß-D-glucopyranosid] | 2.7 µg/mL (≈ 5.63 µM) | > 10 µg/mL | – | – | –
CCOc1cc(OC)c(C(=O)NCc2ccc(OC)cc2)c(OC(C)=O)c1 [2-[(p-Anisyl-amino)carbonyl]-5-ethoxy-3-methoxypheny]acetat] | 0.3 µg/mL (≈ 0.803 µM) | > 8 µg/mL | – | – | –
COc1ccc(CNC(=O)c2c(OC)cc(OC)cc2OC(=O)c2ccccc2)cc1 [2-[(p-Anisylamino)carbonyl]-3,5-dimethoxyphenyl-benzoat] | 0.03 µg/mL (≈ 0.0712 µM) | > 8 µg/mL | – | – | –
COc1ccc(CNC(=O)c2c(OC)cc(OC)cc2OP(=O)(O)O)cc1 [2-[(p-Anisylamino)carbonyl]-3,5-dimethoxyphenyl-dihydrogenphosphat] | – | > 8 µg/mL | – | – | 0.006 to 0.01 µg/mL (≈ 0.0151 to 0.0252 µM)
CCCCCCCCCCCCCCCCCC(=O)Oc1cc(OC)cc(OC)c1C(=O)NCc1ccc(OC)cc1 [2-[(p-Anisylamino)carbonyl]-3,5-dimethoxyphenyl-octadecanoat] | 0.3 to 0.9 µg/mL (≈ 0.514 to 1.54 µM) | > 8 µg/mL | – | – | –
COc1ccc(CNC(=O)c2c(OC)cc(OC)cc2O[C@@H]2O[C@H](COC(C)=O)[C@@H](OC(C)=O)[C@H](OC(C)=O)[C@H]2OC(C)=O)cc1 [2-[(p-Anisylamino)carbonyl]-3,5-dimethoxyphenyl-tetra-O-acetyl-ß-D-glucopyranosid] | 2.7 µg/mL (≈ 4.17 µM) | > 10 µg/mL | – | – | –
C=CCOc1ccc(CNC(=O)c2c(OC)cc(OC)cc2OC(=O)c2ccccc2)cc1 [2-{[[p-(Allyloxy)benzyl]amino]carbonyl}-3,5-dimethoxyphenyl-benzoat] | 0.002 µg/mL (≈ 0.00447 µM) | 2.7 µg/mL | besonders starke antivirale Aktivität | – | –
C=CCOc1ccc(CNC(=O)c2c(OC)cc(OC)cc2OC(=O)CCCCCCCCCCCCCCCCC)cc1 [2-{[[p-(Allyloxy)benzyl]amino]carbonyl}-3,5-dimethoxyphenyl-octadecanoat] | 0.3 µg/mL (≈ 0.492 µM) | > 8 µg/mL | – | – | –
COc1cc(O)c(C(=O)CCc2ccc(Cl)cc2)c(OC)c1 [3-(4-Chlorophenyl)-1-(2-hydroxy--4,6-dimethoxyphenyl)-1--propanon] | 0.1 µg/mL (≈ 0.312 µM) | 10 µg/mL | – | – | –
C=CCOc1cc(O)c(C(=O)NCc2ccc(OC)cc2)c(OC)c1 [4-(Allyloxy)-2-hydroxy-6-methoxy-N-(p-methoxybenzyl)benzamid] | 0.002 µg/mL (≈ 0.00582 µM) | > 8 µg/mL | besonders starke antivirale Aktivität | – | –
CCOc1cc(O)c(C(=S)NCc2ccc(OC)cc2)c(OC)c1 [4-Ethoxy-2-hydroxy-6-methoxy-N-(p-methoxybenzyl)-thiobenzamid] | 0.01 µg/mL (≈ 0.0288 µM) | > 8 µg/mL | – | – | –
CCOc1cc(OC)c(C(=O)CCc2ccc(OC)cc2)c(OC(C)=O)c1 [5-Ethoxy-3-methoxy-2-[3-(4-methoxyphenyl)-propionyl]phenyl-acetat] | 0.001 µg/mL (≈ 0.00269 µM) | > 8 µg/mL | – | – | –

From patent EP0051819A2, “Tetra-substituted benzene derivatives, their preparation and pharmaceutical preparations containing them” (F. HOFFMANN-LA ROCHE & CO. Aktiengesellschaft, priority 1980, dated 1982)
